Assay results taken from patent US7186736B1, “NNI for treatment of multi-drug resistant HIV” (Parker Hughes Institute, priority 1999, dated 2007).
Where two headings read alike, the source gives them in different places.

Legend:
[1] = biological target: T1, purified recombinant HIV RT (Human immunodeficiency virus type 1 group M subtype B, UniProt P04585); test: Purified RT assay, cell-free Quan-T-RT system (scintillation proximity); assay type: biochemical; conditions: for IC50: recombinant HIV RT, cell-free
T1 construct: purified recombinant HIV RT
Experimental: The primer DNA is a 16-mer oligo(T) which has been annealed to a poly(A) template. The primer/template is bound to a strepavidin-coated SPA bead.
3H-TTP is incorporated into the primer by reverse transcription. […] The compound being tested was added to the reaction mixture at 0.001 μM–100 μM concentrations. […] The reaction was stopped by addition of 0.2 ml of 120 mM EDTA. The samples were counted in an open window using a Beckman LS 7600 instrument and IC, values were calculated by comparing the measurements to untreated samples.

[2] = tested on: HIV strain RT-MDR (74V, 41L, 106A, 215Y); test: microbe, parasite or virus in culture; assay type: cell-based, HIV-1; conditions: for times less potent than DDE240: multiple drug resistant mutant strain
Experimental: (§1) Percent inhibition of viral replication was calculated by comparing the p24 values from the test substance treated infected cells with p24 values from untreated infected cells (i.e., virus controls). In parallel, the effects of various treatments on cell viability were also examined, as described in Enrice et. al., supra. In brief, non-infected PBNWC were treated with each compound for 7 days under identical experimental conditions. A Microculture Tetrazolium Assay (NTFA), using 2,3-bis(2-methoxy-4 nitro-5-sulfophenyl)-5-[(phenylamino)-carbonyl]-2H-tetrazolium hydroxide (XTT), was performed to quantitate cellular proliferation.

[3] = tested on: HIV strain HTLV-IIIB (WT); test: p24 production in PBMNC infected with HTLV-IIIB; assay type: cell-based, HIV-1
Experimental: as §1

HIV strain A17 (Y181C) = test: p24 production in PBMNC infected with A17; assay type: cell-based, HIV-1; conditions: for IC50: Human immunodeficiency virus 1, read-out: IC50 p24
Experimental: (§2) Normal human peripheral blood mononuclear cells (PBMNC) from HIV-negative donors were cultured 72 hours in RPMI 1640 supplemented with 20% (v/v) heat-inactivated fetal bovine serum (FBS), 3% interleukin-2, 2 mM L-glutairtine, 25 mM HEPES, 2 μL, NAHCO, […] gentamicin, and 4 μg/mL phytohemagglutinin prior to exposure to HIV-I at a multiplicity of infection (MOI) of 0.1 during a one-hour adsorption period at 37'C in a humidified 5% C02 atmosphere. Subsequently, cells were cultured in 96-well microliter plates (100 μl/well; 2×10^6 cells/mL, triplicate wells) in the presence of various inhibitor concentrations and aliquots of culture supernatants were removed from the wells on the 7th day after infection for p24 antigen p24 enzyme immunoassays (EIA), as previously described. (see Erice et. al., 1993, Antiimicrob. Ag. Chemotherapy 37:835–838) The applied p24 EIA was the unmodified kinetic assay commercially available from Coulter Corporation/Immunotech, Inc. (Westbrooke, Me.), which utilizes a murine monoclonal antibody to HIV core protein coated onto microwell strips to which the antigen present in the test culture supernatant samples binds. Percent inhibition of viral replication was calculated by comparing the p24 values from the test substance treated infected cells with p24 values from untreated infected cells (i.e., virus controls). In parallel, the effects of various treatments on cell viability were also examined, as described in Enrice et. al., supra. In brief, non-infected PBNWC were treated with each compound for 7 days under identical experimental conditions. A Microculture Tetrazolium Assay (NTFA), using 2,3-bis(2-methoxy-4 nitro-5-sulfophenyl)-5-[(phenylamino)-carbonyl]-2H-tetrazolium hydroxide (XTT), was performed to quantitate cellular proliferation.

[4] = tested on: HIV strain A17 variant (Y181C, K103N); test: p24 production in PBMNC infected with A17 variant; assay type: cell-based, HIV-1; conditions: Human immunodeficiency virus 1, read-out: IC50 p24
Experimental: as §2

[5] = Human immunodeficiency virus 1, read-out: IC50 p24, RT-MDR (74V, 41L, 106A, 215Y), PBMNC
[6] = Human immunodeficiency virus 1, HTLV IIIB WT, PBMNC, read-out: IC50 p24
[7] = Human immunodeficiency virus 1, IIIB, HIV replication assay
[8] = Human immunodeficiency virus 1, HTLV IIIB, PBMNC, read-out: IC50[p24]

SMILES | IC50 ([1]; read-out: RRT (IC50[rRT])) [nM] | IC50 [2, 5] [nM] | IC50 [3, 6] [nM] | IC50 (HIV strain A17 (Y181C)) [nM] | IC50 [4] [nM] | further results
CCOCn1c(Cc2ccccc2)c(C(C)C)c(=O)[nH]c1=O [MKC-442, reference compound] | 800 | 300 | – | – | – | –
Cc1ccnc2c1NC(=O)c1cccnc1N2C1CC1 [Nevirapine, reference compound] | – | 5000 | 34 | > 100000 | > 100000 | –
Cc1cn([C@H]2C[C@H](N=[N+]=[N-])[C@@H](CO)O2)c(=O)[nH]c1=O [AZT, reference compound] | – | 150 | – | 6 | – | IC90 [3, 7]: 100 nM
COc1ccc(OC)c(CCNC(=S)Nc2ccc(Br)cn2)c1 [DDE236, N-[2-(2,5-dimethoxyphenylethyl)]-N′-[2-(5-bromopyridyl)]-thiourea] | – | 5 | < 1 | 100 | 11000 | times more potent than trovirdine ([1]; purified recombinant HIV-RT): 8 times; IC90 fold better than AZT ([3]; HIV replication assay): 10 fold; IC90 [3, 7]: 9 nM; selectivity index (IC50[MTA]/IC50[p24]) ([3]; calculated): > 10^5; melting point: 133 to 138 °C
CC(C)Nc1cccnc1N1CCN(C(=O)c2cc3cc(NS(C)(=O)=O)ccc3[nH]2)CC1 [Delavirdine, reference compound] | – | 400 | 9 | 50000 | > 100000 | –
S=C(NCCc1ccccc1Cl)Nc1ccc(Br)cn1 [DDE253] | – | 4 | < 1 | – | – | –
Fc1cccc(CCNC(=S)Nc2ccc(Br)cn2)c1 [DDE241] | 760 | 20 | < 1 | – | – | –
Fc1ccccc1CCNC(=S)Nc1ccc(Br)cn1 [DDE240, N-[2-(2-fluorophenethyl)]-N′-[2-(5-bromopyridyl)]-thiourea] | – | 6 | < 1 | 200 | 41000 | IC50 [3, 8]: < 1 nM; fold better activity than delavirdine ([2]; MDR HIV): 100 fold; fold better activity than nevirapine ([2]; MDR HIV): 800 fold; IC50 ([2]; read-out: IC50 p24, RT-MDR (74V, 41L, 106A, 215Y), PBMNC): 5 nM; times better activity than delavirdine (HIV strain A17 (Y181C); Y181C mutant): 200 times; times more potent than nevirapine (HIV strain A17 (Y181C); Y181C mutant): more than 500 times; melting point: 156 to 157 °C
Fc1ccc(CCNC(=S)Nc2ccc(Br)cn2)cc1 [DDE242] | 6060 | – | – | – | – | IC50 ([1]; RRT (IC50[rRT])): 6000 nM; IC50 [3, 8]: 10 nM
S=C(NCCc1ccccn1)Nc1ccc(Br)cn1 [Trovirdine, reference compound] | – | – | – | – | – | IC50 ([3]; Human immunodeficiency virus 1, IIIB, read-out: IC50 p24): 7 nM; times less potent than DDE240 ([3]; zidovudine-sensitive strain HTLV IIIB): 10 times; IC50 ([2]; Human immunodeficiency virus 1, read-out: IC50 p24): 20 nM; times less potent than DDE240 [2]: up to 7 times; times less potent than DDE240 ([2]; listed as Trouviridine): three times less potent
